Reference: the NIST ThermoML archive (doi:10.1021/je400250u)
± gives the expanded uncertainty stated by the source.

Experiment: xn = mol fraction of the nth substance listed
Settings: 100 kPa, Liquid; for viscosity: Capillary tube (Ostwald / Ubbelohde) method; for mass density: Vibrating tube method

C1CC[C@H]2CCCC[C@@H]2C1 [trans-decahydronaphthalene] + CCCCCCCCCCC
Settings | mass density, 293.15 K [kg/m3] | mass density, 298.15 K [kg/m3] | mass density, 303.15 K [kg/m3] | mass density, 308.15 K [kg/m3] | viscosity, 293.15 K [mPa·s] | viscosity, 298.15 K [mPa·s] | viscosity, 303.15 K [mPa·s] | viscosity, 308.15 K [mPa·s] | viscosity, 313.15 K [mPa·s]
x1 = 0.1041 | 751.02 ± 0.29 | 747.37 ± 0.29 | 743.67 ± 0.29 | 739.97 ± 0.29 | 1.214 ± 0.014 | 1.12 ± 0.014 | 1.037 ± 0.013 | 0.965 ± 0.013 | 0.9 ± 0.012
x1 = 0.2052 | 761.89 ± 0.26 | 758.22 ± 0.26 | 754.53 ± 0.26 | 750.83 ± 0.26 | 1.258 ± 0.014 | 1.159 ± 0.013 | 1.073 ± 0.013 | 0.996 ± 0.013 | 0.929 ± 0.012
x1 = 0.3027 | 772.86 ± 0.24 | 769.19 ± 0.24 | 765.5 ± 0.24 | 761.8 ± 0.24 | 1.315 ± 0.014 | 1.212 ± 0.013 | 1.121 ± 0.013 | 1.041 ± 0.013 | 0.972 ± 0.012
x1 = 0.3999 | 784.34 ± 0.22 | 780.66 ± 0.22 | 776.97 ± 0.22 | 773.28 ± 0.22 | 1.369 ± 0.014 | 1.26 ± 0.013 | 1.165 ± 0.013 | 1.081 ± 0.013 | 1.006 ± 0.012
x1 = 0.4997 | 796.76 ± 0.2 | 793.09 ± 0.2 | 789.4 ± 0.2 | 785.7 ± 0.2 | 1.444 ± 0.014 | 1.326 ± 0.013 | 1.222 ± 0.013 | 1.136 ± 0.013 | 1.058 ± 0.012
x1 = 0.5991 | 809.74 ± 0.19 | 806.06 ± 0.19 | 802.37 ± 0.19 | 798.67 ± 0.19 | 1.529 ± 0.014 | 1.406 ± 0.014 | 1.296 ± 0.013 | 1.201 ± 0.013 | –
x1 = 0.6991 | 823.47 ± 0.17 | 819.79 ± 0.17 | 816.09 ± 0.17 | 812.39 ± 0.17 | 1.625 ± 0.014 | 1.492 ± 0.014 | 1.376 ± 0.013 | 1.274 ± 0.013 | –
x1 = 0.8019 | 838.4 ± 0.16 | 834.72 ± 0.16 | 831.02 ± 0.16 | 827.31 ± 0.16 | 1.752 ± 0.014 | 1.606 ± 0.014 | 1.478 ± 0.013 | 1.366 ± 0.013 | –
x1 = 0.8992 | 853.35 ± 0.15 | 849.65 ± 0.15 | 845.94 ± 0.15 | 842.22 ± 0.15 | 1.899 ± 0.015 | 1.741 ± 0.014 | 1.597 ± 0.014 | 1.473 ± 0.013 | –
x1 = 1 | 869.78 ± 0.13 | 866.07 ± 0.13 | 862.34 ± 0.14 | 858.61 ± 0.14 | 2.112 ± 0.015 | 1.925 ± 0.015 | 1.769 ± 0.014 | 1.628 ± 0.013 | –
